{
  "source": "ChEMBL document CHEMBL1126778",
  "about": "“Adenosine A1 antagonists. 3. Structure-activity relationships on amelioration against scopolamine- or N6-((R)-phenylisopropyl)adenosine-induced cognitive disturbance” (J Med Chem, 1993)",
  "key": {"Adenosine A2 receptor [1]": {"target": "Adenosine A2 receptor (Homo sapiens, UniProt P29275+P29274)", "assay": "Binding affinity against Adenosine A2 receptor from human platelets with [125I]-N6-aminobenzyladenosine"}, "Adenosine A2 receptor [2]": {"target": "Adenosine A2 receptor (Rattus norvegicus, UniProt P29276+P30543)", "assay": "Binding affinity at Adenosine A2 receptor from rat striatal membranes by N-[3H] ethyladenosin-5'- uronamide displacement."}, "Mus musculus [3]": {"system": "Mus musculus", "assay": "Acquisition time in (R)-PIA) induced avoidance test (performed in mice) for antagonistic activity after peroral administration of 0.08 mg/kg", "format": "functional", "details": "route oral"}, "Mus musculus [4]": {"system": "Mus musculus", "assay": "Acquisition time in (R)-PIA) induced avoidance test (performed in mice) for antagonistic activity after p.o. administration of 1.25 mg/kg", "format": "functional", "details": "route oral"}, "Mus musculus [5]": {"system": "Mus musculus", "assay": "Acquisition time in (R)-PIA) induced avoidance test (performed in mice) for antagonistic activity after peroral administration of 20 mg/kg (n=15)", "format": "functional", "details": "route oral"}, "Mus musculus [6]": {"system": "Mus musculus", "assay": "Retention time in (R)-PIA) induced avoidance test (performed in mice) for antagonistic activity after p.o. administration of 1.25 mg/kg", "format": "functional, organism-based", "parameters": "dose 1.25 mg/kg"}, "Mus musculus [7]": {"system": "Mus musculus", "assay": "Retention time in (R)-PIA) induced avoidance test (performed in mice) for antagonistic activity after peroral administration of 20 mg/kg (n=15) (P<0.005)", "format": "functional, organism-based", "parameters": "dose 20 mg/kg"}, "Mus musculus [8]": {"system": "Mus musculus", "assay": "Retention time in (R)-PIA) induced avoidance test (performed in mice) for antagonistic activity after peroral administration of 0.31 mg/kg", "format": "functional, organism-based", "parameters": "dose 0.31 mg/kg"}, "Mus musculus [9]": {"system": "Mus musculus", "assay": "Tested for locomotor activity after oral administration of 10 mg/kg for 120 min", "format": "functional"}, "Mus musculus [10]": {"system": "Mus musculus", "assay": "Tested for locomotor activity after oral administration of […] for 120 min", "format": "functional"}, "Mus musculus [11]": {"system": "Mus musculus", "assay": "Tested for locomotor activity after oral administration of 40 mg/kg for 120 min", "format": "functional"}, "Rattus norvegicus [12]": {"system": "Rattus norvegicus", "assay": "Acquisition time in Scopolamine induced avoidance test (performed in rat) for antagonistic activity after peroral administration of 1.25 mg/kg (n=12)", "format": "functional", "details": "route oral"}, "Rattus norvegicus [13]": {"system": "Rattus norvegicus", "assay": "Acquisition time in Scopolamine induced avoidance test (performed in rat) for antagonistic activity after peroral administration of 0.02 mg/kg", "format": "functional", "details": "route oral"}, "Rattus norvegicus [14]": {"system": "Rattus norvegicus", "assay": "Acquisition time in Scopolamine induced avoidance test (performed in rat) for antagonistic activity after p.o. administration of 0.08 mg/kg", "format": "functional", "details": "route oral"}, "Rattus norvegicus [15]": {"system": "Rattus norvegicus", "assay": "Acquisition time in Scopolamine induced avoidance test (performed in rat) for antagonistic activity after p.o. administration of 0.31 mg/kg", "format": "functional", "details": "route oral"}, "Rattus norvegicus [16]": {"system": "Rattus norvegicus", "assay": "Acquisition time in Scopolamine induced avoidance test (performed in rat) for antagonistic activity after p.o. administration of 5 mg/kg", "format": "functional", "details": "route oral"}, "Rattus norvegicus [17]": {"system": "Rattus norvegicus", "assay": "Retention time in Scopolamine induced avoidance test (performed in […]) for antagonistic activity after peroral administration of 1.25 mg/kg (n=12) (P<0.01)", "format": "functional, organism-based", "parameters": "dose 1.25 mg/kg"}, "Rattus norvegicus [18]": {"system": "Rattus norvegicus", "assay": "Retention time in Scopolamine induced avoidance test (performed in rat) for antagonistic activity after peroral administration of 0.02 mg/kg", "format": "functional, organism-based", "parameters": "dose 0.02 mg/kg"}, "Rattus norvegicus [19]": {"system": "Rattus norvegicus", "assay": "Retention time in Scopolamine induced avoidance test (performed in rat) for antagonistic activity after p.o. administration of 0.08 mg/kg", "format": "functional, organism-based", "parameters": "dose 0.08 mg/kg"}, "Rattus norvegicus [20]": {"system": "Rattus norvegicus", "assay": "Retention time in Scopolamine induced avoidance test (performed in rat) for antagonistic activity after p.o. administration of 0.31 mg/kg", "format": "functional, organism-based", "parameters": "dose 0.31 mg/kg"}, "Rattus norvegicus [21]": {"system": "Rattus norvegicus", "assay": "Retention time in Scopolamine induced avoidance test (performed in rat) for antagonistic activity after peroral administration of 5 mg/kg", "format": "functional, organism-based", "parameters": "dose 5 mg/kg"}, "Mus musculus [22]": {"system": "Mus musculus", "assay": "Acquisition time in (R)-PIA) induced avoidance test (performed in mice) for antagonistic activity after peroral administration of 0.31 mg/kg (n=15)", "format": "functional", "details": "route oral"}, "Mus musculus [23]": {"system": "Mus musculus", "assay": "Retention time in (R)-PIA) induced avoidance test (performed in mice) for antagonistic activity after peroral administration of 5 mg/kg", "format": "functional, organism-based", "parameters": "dose 5 mg/kg"}, "Mus musculus [24]": {"system": "Mus musculus", "assay": "Retention time in (R)-PIA) induced avoidance test (performed in mice) for antagonistic activity after peroral administration of 0.08 mg/kg", "format": "functional, organism-based", "parameters": "dose 0.08 mg/kg"}, "Mus musculus [25]": {"system": "Mus musculus", "assay": "Retention time in (R)-PIA) induced avoidance test (performed in mice) for antagonistic activity after peroral administration of 0.31 mg/kg (n=15) (P<0.005)", "format": "functional, organism-based", "parameters": "dose 0.31 mg/kg"}, "Rattus norvegicus [26]": {"system": "Rattus norvegicus", "assay": "Acquisition time in Scopolamine induced avoidance test (performed in rat) for antagonistic activity after peroral administration of 1.25 mg/kg", "format": "functional", "details": "route oral"}, "Rattus norvegicus [27]": {"system": "Rattus norvegicus", "assay": "Acquisition time in Scopolamine induced avoidance test (performed in rat) for antagonistic activity after peroral administration of 20 mg/kg", "format": "functional", "details": "route oral"}, "Rattus norvegicus [28]": {"system": "Rattus norvegicus", "assay": "Acquisition time in Scopolamine induced avoidance test (performed in rat) for antagonistic activity after peroral administration of 0.31 mg/kg (n=15)", "format": "functional", "details": "route oral"}, "Rattus norvegicus [29]": {"system": "Rattus norvegicus", "assay": "Retention time in Scopolamine induced avoidance test (performed in […]) for antagonistic activity after peroral administration of 5 mg/kg", "format": "functional, organism-based", "parameters": "dose 5 mg/kg"}, "Rattus norvegicus [30]": {"system": "Rattus norvegicus", "assay": "Retention time in Scopolamine induced avoidance test (performed in rat) for antagonistic activity after peroral administration of 0.31 mg/kg (n=15)", "format": "functional, organism-based", "parameters": "dose 0.31 mg/kg"}, "Rattus norvegicus [31]": {"system": "Rattus norvegicus", "assay": "Retention time in Scopolamine induced avoidance test (performed in rat) for antagonistic activity after peroral administration of 1.25 mg/kg", "format": "functional, organism-based", "parameters": "dose 1.25 mg/kg"}, "Rattus norvegicus [32]": {"system": "Rattus norvegicus", "assay": "Retention time in Scopolamine induced avoidance test (performed in rat) for antagonistic activity after peroral administration of 20 mg/kg (n=14)", "format": "functional, organism-based", "parameters": "dose 20 mg/kg"}, "Mus musculus [33]": {"system": "Mus musculus", "assay": "Acquisition time in (R)-PIA) induced avoidance test (performed in mice) for antagonistic activity after peroral administration of 5 mg/kg", "format": "functional", "details": "route oral"}, "Rattus norvegicus [34]": {"system": "Rattus norvegicus", "assay": "Acquisition time in Scopolamine induced avoidance test (performed in rat) for antagonistic activity after peroral administration of 0.02 mg/kg", "details": "route oral"}},
  "note": "Where “and” joins values, the source holds several entries; their conditions need not be identical. Equal entries are not always repeated.",
  "data": [
    {"smiles": "CCCn1c(=O)c2nc(C3CCCC3)[nH]c2n(CCc2ccc(N)cc2)c1=O", "values": [
      {"measurement": "Ki", "setting": "Adenosine A2 receptor [1]", "result": 2000, "unit": "nM"},
      {"measurement": "Ki", "setting": "Adenosine A2 receptor [2]", "result": 430, "unit": "nM"},
      {"measurement": "Acquisition time", "setting": "Mus musculus [3]", "result": 21.2, "unit": "s"},
      {"measurement": "Acquisition time", "setting": "Mus musculus [4]; 1.25 mg/kg", "result": "28.7 s and 23.1 s"},
      {"measurement": "Acquisition time", "setting": "Mus musculus [5]", "result": 23.5, "unit": "s"},
      {"measurement": "Retention time", "setting": "Mus musculus [6]", "result": "152 s and 177 s"},
      {"measurement": "Retention time", "setting": "Mus musculus [7]", "result": 318, "unit": "s"},
      {"measurement": "Retention time", "setting": "Mus musculus [8]", "result": 113, "unit": "s"},
      {"measurement": "Locomotor activity", "setting": "Mus musculus [9]", "result": 6693, "unit": "Counts"},
      {"measurement": "Locomotor activity", "setting": "Mus musculus [10]", "result": 6224, "unit": "Counts"},
      {"measurement": "Locomotor activity", "setting": "Mus musculus [11]", "result": 5867, "unit": "Counts"},
      {"measurement": "Acquisition time", "setting": "Rattus norvegicus [12]", "result": 18.3, "unit": "s"},
      {"measurement": "Acquisition time", "setting": "Rattus norvegicus [13]", "result": 25.7, "unit": "s"},
      {"measurement": "Acquisition time", "setting": "Rattus norvegicus [14]", "result": 20.8, "unit": "s"},
      {"measurement": "Acquisition time", "setting": "Rattus norvegicus [15]", "result": 11.1, "unit": "s"},
      {"measurement": "Acquisition time", "setting": "Rattus norvegicus [16]", "result": 12.3, "unit": "s"},
      {"measurement": "Retention time", "setting": "Rattus norvegicus [17]", "result": 384, "unit": "s"},
      {"measurement": "Retention time", "setting": "Rattus norvegicus [18]", "result": 151, "unit": "s"},
      {"measurement": "Retention time", "setting": "Rattus norvegicus [19]", "result": 160, "unit": "s"},
      {"measurement": "Retention time", "setting": "Rattus norvegicus [20]", "result": 255, "unit": "s"},
      {"measurement": "Retention time", "setting": "Rattus norvegicus [21]", "result": 255, "unit": "s"}
    ]},
    {"smiles": "CC(C)Cn1c(=O)n(C)c(=O)c2[nH]c(C(C3CC3)C3CC3)nc21", "values": [
      {"measurement": "Acquisition time", "setting": "Mus musculus [3]", "result": 25.7, "unit": "s"},
      {"measurement": "Acquisition time", "setting": "Mus musculus [22]", "result": 26.4, "unit": "s"},
      {"measurement": "Acquisition time", "setting": "Mus musculus [4]", "result": 19.9, "unit": "s"},
      {"measurement": "Retention time", "setting": "Mus musculus [6]", "result": 349, "unit": "s"},
      {"measurement": "Retention time", "setting": "Mus musculus [23]", "result": 359, "unit": "s"},
      {"measurement": "Retention time", "setting": "Mus musculus [24]", "result": 171, "unit": "s"},
      {"measurement": "Retention time", "setting": "Mus musculus [25]", "result": 370, "unit": "s"},
      {"measurement": "Acquisition time", "setting": "Rattus norvegicus [26]", "result": 11.8, "unit": "s"},
      {"measurement": "Acquisition time", "setting": "Rattus norvegicus [27]", "result": 9.6, "unit": "s"},
      {"measurement": "Acquisition time", "setting": "Rattus norvegicus [14]", "result": 7.1, "unit": "s"},
      {"measurement": "Acquisition time", "setting": "Rattus norvegicus [28]", "result": 8.3, "unit": "s"},
      {"measurement": "Acquisition time", "setting": "Rattus norvegicus [16]", "result": 11.5, "unit": "s"},
      {"measurement": "Retention time", "setting": "Rattus norvegicus [29]", "result": 9.9, "unit": "s"},
      {"measurement": "Retention time", "setting": "Rattus norvegicus [18]", "result": 17.6, "unit": "s"},
      {"measurement": "Retention time", "setting": "Rattus norvegicus [19]", "result": 17.6, "unit": "s"},
      {"measurement": "Retention time", "setting": "Rattus norvegicus [30]", "result": 50.9, "unit": "s"},
      {"measurement": "Retention time", "setting": "Rattus norvegicus [31]", "result": 22.8, "unit": "s"},
      {"measurement": "Retention time", "setting": "Rattus norvegicus [32]", "result": 14.1, "unit": "s"},
      {"measurement": "Acquisition time", "setting": "Mus musculus [33]", "result": 12.5, "unit": "s"},
      {"measurement": "Acquisition time", "setting": "Rattus norvegicus [34]", "result": 10.1, "unit": "s"}
    ]}
  ]
}
